From patent US20200062696A1, “COMPOSITIONS AND METHODS FOR INHIBITING RETICULON 4” (THE REGENTS OF THE UNIVERSITY OF CALIFORNIA, priority 2017, published 2020)

Legend:
[1] = Body weight and overt toxicity of mice in the tumor xenograft study; assay type: in vivo; details: 50 mg/kg ip once per day, weighed at the end of the study
Experimental: Mice from tumor xenograft studies shown in FIG. 1E were weighed at the end of the study. […] Data are presented as mean±sem, n=8 mice/group.
Tumor Xenograft Growth Studies. C.B17 SCID male mice (6-8 weeks old) were injected subcutaneously into the flank with 2,000,000 cells in serum-free media. […] Tumors were measured every 7 days by caliper measurements.

[2] = test system: U2OS cells expressing GFP-tagged Sec61β; assay: Time-lapse imaging of mitosis and nuclear envelope in U2OS cells expressing GFP-Sec61β; assay type: cell-based; details: DKM 3-30 50 μM
Experimental: FIGS. 4A-4C. DKM 3-30 disrupts nuclear envelope morphology during mitosis. (FIGS. 4A-4C) U2OS cells expressing GFP-tagged Sec61β were treated with vehicle (DMSO) or DKM 3-30 (50 μM) and the ER morphology of mitotic cells visualized by time-lapse fluorescence microscopy. Time (min) is indicated on each panel. Panels (FIGS. 4A, 4B) provide examples of mitotic cells. Enlarged images following mitosis show the nuclear envelope. White arrowheads indicate a GFP-Sec61β structure bisecting the nucleus of a cell incubated with DKM 3-30. […] Bottom panels indicate boxed region.
Fluorescence microscopy. SW620 and U2OS cells were transiently transfected with a plasmid encoding GFP-tagged Sec61β using fuGENE6 (Roche) according to the manufacturer's instructions. Transfected cells plated on poly-L-lysine treated coverslips were treated, washed in PBS, and fixed by incubation in 4% paraformaldehyde in PBS for 10 min. Fixed cells were washed extensively in PBS and nuclei stained by addition of 4′,6-diamidino-2-phenylindole (DAPI) (Thermo Fisher Scientific) for 10 min. Coverslips were mounted using Fluoromount-G (SouthernBiotech) and visualized using a DeltaVision Elite microscope outfitted with a 60× oil immersion objective. Acquired stacks of images of fixed cells were deconvolved and analyzed using SoftWoRx and ImageJ. […] Acquired images were analyzed using SoftWoRx and ImageJ.

[3] = test system: SW620 colorectal cancer cells; assay: Serum-free cell survival of SW620 cells (Hoescht staining); assay type: cell-based; details: 48 h, vs DMSO, average of n = 3/group
Experimental: Cell Culture. SW620 cells were purchased from ATCC. SW620 cells were grown in L-15 media with 10% fetal bovine serum (FBS) in ambient CO2. U2OS cells were grown in DMEM media supplemented with 10% FBS at 37° C. with 5% CO2.
Survival and Proliferation Assays. Cells were plated the evening before the experiment, and allowed to adhere overnight. For serum-free cell survival assays, cells were plated in media not containing FBS. For cell proliferation assays, cells were plated in regular media. For the chemical genetics screen, cells were treated with either DMSO or the cysteine-reactive fragment for 48 h and cell viability was assessed by Hoescht stain using our previously described methods

[4] = test system: U2OS cells expressing GFP-tagged Sec61β; assay: ER morphology by fluorescence microscopy in U2OS cells expressing GFP-Sec61β; assay type: cell-based
Experimental: (§1) Fluorescence microscopy. SW620 and U2OS cells were transiently transfected with a plasmid encoding GFP-tagged Sec61β using fuGENE6 (Roche) according to the manufacturer's instructions. Transfected cells plated on poly-L-lysine treated coverslips were treated, washed in PBS, and fixed by incubation in 4% paraformaldehyde in PBS for 10 min. Fixed cells were washed extensively in PBS and nuclei stained by addition of 4′,6-diamidino-2-phenylindole (DAPI) (Thermo Fisher Scientific) for 10 min. Coverslips were mounted using Fluoromount-G (SouthernBiotech) and visualized using a DeltaVision Elite microscope outfitted with a 60× oil immersion objective. Acquired stacks of images of fixed cells were deconvolved and analyzed using SoftWoRx and ImageJ. For time-lapse imaging of live cells, transfected cells were plated on poly-L-lysine treated glass-bottom 4-well imaging chambers (Lab-Tek II; Thermo Fisher Scientific). Imaging was performed using a DeltaVision Elite microscope encased in a chamber that was maintained at 37° C. and was continuously perfused with humidified 5% CO2. Acquired images were analyzed using SoftWoRx and ImageJ.

[5] = test system: SW620 cells expressing GFP-tagged Sec61β; assay: ER morphology by fluorescence microscopy in SW620 cells expressing GFP-Sec61β; assay type: cell-based; details: DKM 3-30 50 μM
Experimental: FIG. 8. ER Morphology in SW620 Colorectal Cancer Cells. SW620 cells expressing GFP-tagged Sec61β were treated with DKM 3-30 (50 μM) for the indicated times and the ER (light gray/white) and nuclear (dark gray) morphology visualized by fluorescence microscopy.
as §1

Question: With `C=CC(=O)Nc1ccc(Oc2ccc(Cl)cc2)cc1` [DKM 3-30, N-(4-(4-chlorophenoxy)phenyl)acrylamide] as the molecule, how does the “body weight and signs of overt toxicity” value [1] read?
Answer: without any changes in body weight or any signs of overt toxicity

Question: And the “nuclear envelope morphology following mitosis” value [2]?
Answer: aberrant nuclei that were bisected by GFP-Sec61β positive structures

Question: What about the duration of mitosis ([2]; control cells ~50-60 min) of the same molecule?
Answer: 3 to 4 h

Question: What about the viability at 50 µM ([3]; Homo sapiens, SW-620, cysteine-reactive fragment 50 μM, read-out: SW620 survival Ave) of the same molecule?
Answer: 31%

Question: What about the “SW620 survival Ave” value ([3]; cysteine-reactive fragment 50 μM) of the same molecule?
Answer: significantly impaired

Question: What about the “ER morphology in U2OS cells” value ([4]; DKM 3-30 50 μM (8 hr, 16 hr, time-lapse), AMR 1-125 1 μM, YP 1-46 50 μM) of the same molecule?
Answer: striking loss of nearly all peripheral ER tubules and an increase in ER that exhibited sheet-like morphology

Question: And the “time at which alterations in the ER morphology were evident” value ([4]; DKM 3-30 50 μM, time-lapse imaging)?
Answer: 0.5-1 hr

Question: And the “ER morphology in SW620 cells” value [5]?
Answer: suggest alterations in the ER morphology
